Earlier results in US12295916B2, “Process for making aqueous therapeutic particle having stable exterior water clustering with nanosized thickness” (priority 2019, dated 2025).

Conditions: given by injection

CNC1(c2ccccc2Cl)CCCCC1=O (centres unmarked) [Ketamine]
duration of effects: ≤ 25 min | time to begin of effects: five
